US20260272888A1, “WOUND TREATMENT COMPOSITION” (OTSUKA PHARMACEUTICAL CO., LTD., priority 2022, published 2026)

Legend:
human keratinocytes = details: NPL 4; cited from earlier work
scratch model = details: NPL 4; cited from earlier work
SD rat [1] = assay: rat corneal epithelial defect (corneal wound) model; assay type: in vivo; details: for wound area healing rate on Day 2: SD rat corneal epithelial defect, 1% ointment to the eye four times a day, n=5; for healing of the corneal defect wound as compared with the vehicle administration group: n=5, t-test (compound A p<0.05; crisaborole n.s.)
Text: Using a male rat (SD rat), a corneal wound was induced as follows. On the day before the start of the test, rats were grouped using a stratified random sampling method based on the body weight. Under isoflurane anesthesia, each conventional rat was anesthetized with a Benoxil ophthalmic solution to the surface of the eye, and then a nonwoven fabric (3 mm in diameter) with 1-heptanol immersed was placed on the central portion of the cornea and allowed to stand for 30 seconds. Thereafter, the surface of the eye was washed with physiological saline, and the corneal epithelium was scratched with a cotton swab and thus carefully peeled to prepare a corneal defect. A 0.5% methylene blue solution was instilled into the eye, and the corneal epithelial defect portion was washed with physiological saline and then photographed, and then an ointment preparation (base alone, 1% compound A-containing ointment, or 1% crisaborole-containing ointment) as a test substance was administered to the eye four times a day (around 8:00, 11:00, 14:00, and 17:00) for three days. After the day following the preparation of the defect wound, photographing of the defect portion and administration of the test substance were repeated.

[2] = test system: normal human epidermal keratinocyte (NHEK); assay: scratch assay of epidermic cells with compound solution or conditioned medium from skin fibroblasts; assay type: cell-based; details: conditioned medium from normal human dermal fibroblasts cultured 24 hours with compound, 18 hours culture
Procedure: The influence of the compound A on epidermic cells via a skin fibroblast was evaluated. As the epidermic cell and the skin fibroblast used in the evaluation system, a normal human epidermal keratinocyte (NHEK, Kurabo Industries Ltd.) and a normal human dermal fibroblast (NEDF, Kurabo Industries Ltd.) were used. As a reference compound, dexamethasone, which is an anti-inflammatory drug, was used.
Skin fibroblasts (1×10^5 cells/mL) suspended in Dulbecco's Modified Eagle Medium (DMEM) containing 10% (v/v) fetal bovine serum (FBS) were seeded at 1 mL/well in a 12 well plate coated with type I collagen, and cultured for 48 hours. After removal of the culture medium and washing with phosphate buffered saline (PBS), the compound solution was added. As the compound solution, a solution was used that was prepared by mixing dimethyl sulfoxide or a compound (the compound A or dexamethasone) dissolved in dimethyl sulfoxide with a normal human epidermal keratinocyte basal medium (HuMedia-KB2, Kurabo Industries Ltd.) (the final concentration of dimethyl sulfoxide was 0.1% [v/v]). After completion of the culture for 24 hours, the conditioned medium was collected.
Epidermic cells (6×10^5 cells/mL) suspended in HuMedia-KB2 were seeded at 100 μL/well in ImageLock 96-well Plate (Sartorius AG) coated with type I collagen, and cultured for 4 hours. […]

SD rat [3] = assay: rat oral ulcer model induced by cauterization; assay type: in vivo; details: for oral ulcer area on Day 8: 1 mass % ointment 0.05 mL twice a day for 5 days from Day 3, Mean±S.E., n=6, vehicle 20.4±2.3 mm^2; for reduction in the oral ulcer area as compared with the vehicle administration group: 1 mass % ointment twice a day for 5 days, Day 8, n=6, t-test (compound A p<0.05; crisaborole n.s.)
Text: Using a male rat (SD rat), an oral ulcer was initiated by cauterization as follows. That is, conventional rats were anesthetized by isoflurane inhalation anesthesia and then placed on their back, and while the upper jaw and the lower jaw of each rat were opened using a rib retractor to take a view, a monopolar having a tip diameter of […] was applied to the central portion of the left oral mucosa, and the portion was cauterized in a circular shape (diameter: 3 to 4 mm) for about 10 to 20 seconds at a set output of 20 to induce an oral ulcer. After the cauterization, the rat was returned to a breeding cage and naturally awakened.
The day of oral ulcer induction was defined as the start day (Day 0). Two days after the oral ulcer induction (Day 2), the rats were grouped using a stratified random sampling method based on the body weight. From 3 days after the initiation of an oral ulcer by cauterization (Day 3), an ointment preparation containing 1 mass % of a test substance or an ointment base alone was orally administered at a dose of 0.05 mL twice a day (around 8:00 and 16:00) for 5 days. (As the compound A 1%, Moizerto (registered trademark) ointment 1% was used. The crisaborole 1% was prepared using a formula in which Moizerto (registered trademark) ointment 1% as the compound A was replaced by crisaborole.) Specifically, a rat anesthetized by isoflurane inhalation was laid down in a left side position, and the ointment preparation was administered to the left cheek where an ulcer was prepared in a state where the oral cavity was opened using tweezers or a rib retractor.

db/db mice = assay: wound model using diabetic (db/db) mouse, circular defect wounds of the back skin; assay type: in vivo; details: for healing promoting action as compared with the vehicle administration group (area of defect portions): ointment applied to defect wounds once daily for 10 days, compound A groups 1%, 2%, p<0.01 for compound A, N=6; for course of the area of the defect portions (start of healing): ointment once daily for 10 days, compound A 1%, 2% groups, crisaborole increase on second day in the 2% group, vehicle decreased from the fourth day
Procedure: The compound A or crisaborole was administered to db/db mice, which are spontaneously diabetic models, for 10 days, and the influence on wound healing was examined by analyzing the wound area.
Before start of the test, the db/db mice were grouped using the HbA1c blood concentration as an index, and shaved from the back to the abdomen. On the test start day, the back skin was punched using a biopsy punch (φ6 mm) under isoflurane anesthesia, and thus two circular defect wounds were prepared. The defect portions were photographed, and then an ointment preparation (vehicle [30% medium chain fatty acid triglyceride-containing white petrolatum], compound A or crisaborole) as a test substance was applied to the defect portions and covered with a dressing (Tegaderm, 3M). After the day following the preparation of the defect wounds, removal of the dressing, photographing of the defect portions (once every two days), administration of the test substance, and covering with a dressing were repeated (once daily for 10 days).

[4] = test system: normal human corneal epithelial cell (HCEC-2); assay: scratch assay of corneal epithelial cells with compound solution or conditioned medium from keratocytes; assay type: cell-based; details: HCEC-2 scratch wound, conditioned medium from normal human keratocytes cultured 24 hours with compound, 20 hours culture
Procedure: The influence of the compound A on corneal epithelial cells via a keratocyte was evaluated. As the corneal epithelial cell and the keratocyte used in the evaluation system, a normal human corneal epithelial cell (HCEC-2, Kurabo Industries Ltd.) and a normal human keratocyte (EK, Cosmo Bio Co., Ltd.) were used.
Keratocytes (2×10^5 cells/mL) suspended in a fibroblast culture medium (Fibroblast Medium, Cosmo Bio Co., Ltd.) were seeded at 1 mL/well in a 12 well plate coated with poly-L-lysine, and cultured overnight. After removal of the culture medium and washing with normal human corneal epithelial cell basal medium (OcuLife BM, Kurabo Industries Ltd.), the compound solution was added. As the compound solution, a solution was used that was prepared by mixing dimethyl sulfoxide or the compound A dissolved in dimethyl sulfoxide with OcuLife BM (the final concentration of dimethyl sulfoxide was 0.1% [v/v]). After completion of the culture for 24 hours, the conditioned medium was collected.
Corneal epithelial cells (6×10^5 cells/mL) suspended in OcuLife BM were seeded at 100 μL/well in ImageLock 96-well Plate (Sartorius AG) coated with type I collagen, and cultured for 4 hours. Each well was scratched using a Wound Maker (trademark) tool (Sartorius AG) to prepare an initial scratch wound area in which no cells were present. […]

[5] = SD rat, 1% ointment four times a day

**Q.** For `CS(=O)(=O)Nc1ccc(C(=O)O[C@@H](Cc2c(Cl)c[n+]([O-])cc2Cl)c2ccc(OC(F)F)c(OCC3CC3)c2)cc1OCC1CC1` [CHF6001], which “growth of human keratinocytes” value (human keratinocytes) is on record?
**A.** suppresses growth of human keratinocytes

**Q.** What about the “re-epithelialization in a scratch model after treatment” value (scratch model) of the same molecule?
**A.** re-epithelialization is decreased

**Q.** With `CCOc1ccccc1C(=O)NCc1coc(-c2ccc(OC(F)F)c(OC(C)C)c2)n1` [compound A, N-({2-[4-(difluoromethoxy)-3-(propan-2-yloxy)phenyl]-1,3-oxazol-4-yl}methyl)-2-ethoxybenzamide] as the molecule, how does the “wound area healing rate on Day 2” value (SD rat [1]) read?
**A.** 100%

**Q.** And the “healing of the corneal defect wound as compared with the vehicle administration group” value (SD rat [1]; [5])?
**A.** a significant healing promoting action was confirmed

**Q.** And the “time after preparation of the defect wound from which the defect portion area rapidly decreased” value (SD rat [1]; SD rat, 1% ointment four times a day, vehicle apparent healing started on Day 2)?
**A.** 8 h

**Q.** What about the “migration of the epidermic cells (wound confluence)” value [2] of the same molecule?
**A.** promoted migration of the epidermic cells via the skin fibroblasts

**Q.** What about the “oral ulcer area on Day 8” value (SD rat [3]) of the same molecule?
**A.** 13.1±1.3 mm^2

**Q.** And the “reduction in the oral ulcer area as compared with the vehicle administration group” value (SD rat [3])?
**A.** significant reduction in the oral ulcer area was observed

**Q.** And the “healing promoting action as compared with the vehicle administration group (area of defect portions)” value (db/db mice)?
**A.** a healing promoting action was confirmed

**Q.** And the “course of the area of the defect portions (start of healing)” value (db/db mice)?
**A.** rapidly decreased from the second day

**Q.** And the “migration of the corneal epithelial cells (wound confluence)” value [4]?
**A.** promoted migration of the corneal epithelial cells via the keratocytes

**Q.** With `N#Cc1ccc(Oc2ccc3c(c2)COB3O)cc1` [crisaborole, reference compound] as the molecule, how does the “wound area healing rate on Day 2” value (SD rat [1]) read?
**A.** 81.6%

**Q.** What about the “healing of the corneal defect wound as compared with the vehicle administration group” value (SD rat [1]; [5]) of the same molecule?
**A.** healing was not completed

**Q.** And the “oral ulcer area on Day 8” value (SD rat [3])?
**A.** 18.3±2.7 mm^2

**Q.** What about the “reduction in the oral ulcer area as compared with the vehicle administration group” value (SD rat [3]) of the same molecule?
**A.** significant reduction in the oral ulcer area was not observed

**Q.** And the “healing promoting action as compared with the vehicle administration group (area of defect portions)” value (db/db mice)?
**A.** a significant healing promoting action was not observed

**Q.** What about the “course of the area of the defect portions (start of healing)” value (db/db mice) of the same molecule?
**A.** increased on the second day (in the 2% group) and then gradually decreased from the fourth day
